Data set [1] can be described thus: Neurotoxicity in wild type mouse assessed as motor deficiency by measuring latency to fall at 5 mg/kg, iv QD for 4 weeks by rotarod test. It is filed as toxicity, organism-based. To be noted: in vivo, 672 h. (In general: In the rotarod test animals must keep their balance on a rotating rod.)
Data set [2] can be described thus: Neurotoxicity in wild type mouse assessed as effect on motor deficiency by measuring crossing time at 5 mg/kg, iv QD for 4 weeks by balance beam test. It is filed as toxicity, organism-based. To be noted: in vivo, 672 h.
Data set [3] deals with G-protein coupled receptor 52 (Mus musculus) (UniProt P0C5J4). Nature of the data set: Antagonist activity at GPR52 in mouse STHdhQ7/111 cells assessed as decrease in wild type HTT levels at 1 to 10 uM incubated for 48 hrs in presence of 2B7-terbium and 2166-D2 antibodies by western blot analysis. It is filed as cell-based. To be noted: filed as antagonist, dose 1-10 µM.
Chain of G-protein coupled receptor 52 (Mus musculus) (P0C5J4 whole entry): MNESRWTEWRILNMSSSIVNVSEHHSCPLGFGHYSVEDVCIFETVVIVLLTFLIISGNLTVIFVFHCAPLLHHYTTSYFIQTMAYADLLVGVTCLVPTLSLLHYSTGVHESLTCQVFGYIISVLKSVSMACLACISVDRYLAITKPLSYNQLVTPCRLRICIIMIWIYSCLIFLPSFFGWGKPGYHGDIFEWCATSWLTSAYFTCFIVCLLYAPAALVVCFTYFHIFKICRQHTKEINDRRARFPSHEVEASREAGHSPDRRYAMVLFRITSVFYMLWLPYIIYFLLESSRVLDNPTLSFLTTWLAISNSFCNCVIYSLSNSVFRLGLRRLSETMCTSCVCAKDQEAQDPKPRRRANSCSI
In the next data set the test system is Neuron. Briefly: Neuroprotective activity in neurons from HdhQ7/Q140 mouse assessed as rescue from mHTT-induced neuronal loss at 3 uM incubated for 48 hrs maintained in absence of growth factor N2 and B27 under starvation condition by immunostaining based analysis. It is filed as functional, tissue-based.
The target of data set [4] is G-protein coupled receptor 52 (Mus musculus) (UniProt P0C5J4). Briefly: In vivo antagonist activity at GPR52 in wild type mouse model assessed as reduction in wild type HTT levels at 0.5 mM, icv QD for 3 weeks by TR-FRET analysis. It is filed as functional. In general terms: In TR-FRET formats the signal depends on donor and acceptor labels being close together.
The target in data set [5] is C-C chemokine receptor type 5 (Homo sapiens) (UniProt P51681). Briefly: Antagonist activity at CCR5 (unknown origin) expressed in HEK293 cells assessed as inhibition of […] cAMP accumulation. It is filed as functional, cell-based. Background: Cyclic AMP is a second messenger, typically raised through Gs and lowered through Gi signalling.
Chain of C-C chemokine receptor type 5 (Homo sapiens) (P51681 whole entry, looked up): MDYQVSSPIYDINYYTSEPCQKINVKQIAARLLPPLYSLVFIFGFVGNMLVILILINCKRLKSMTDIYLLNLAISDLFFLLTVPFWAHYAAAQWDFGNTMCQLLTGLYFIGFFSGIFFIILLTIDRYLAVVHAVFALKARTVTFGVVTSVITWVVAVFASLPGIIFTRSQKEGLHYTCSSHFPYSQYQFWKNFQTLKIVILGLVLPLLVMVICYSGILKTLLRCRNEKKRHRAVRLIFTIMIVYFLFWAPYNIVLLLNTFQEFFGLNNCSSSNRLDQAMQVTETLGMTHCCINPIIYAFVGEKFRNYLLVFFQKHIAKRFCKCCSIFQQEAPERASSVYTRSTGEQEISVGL
The target in data set [6] is G-protein coupled receptor 52 (Mus musculus) (UniProt P0C5J4). Nature of the data set: In vivo antagonist activity at GPR52 in HdhQ140 knock-in mouse model assessed as reduction in mHTT levels in cortex at 0.5 mM, icv QD for 3 weeks by TR-FRET analysis. It is filed as functional.
The target is the same in data set [7]. Briefly: In vivo antagonist activity at GPR52 in HdhQ140 knock-in mouse model assessed as reduction in mHTT aggregate levels in striatum in presence of 4C9 antibody labelled with D2 fluorophore at 5 mg/kg, iv QD for 4 weeks by TR-FRET analysis. It is filed as functional, organism-based.
For data set [8], the system named is Mus musculus. Nature of the data set: Neuroprotective activity in HdhQ140 mouse model assessed as rescue of motor deficiency by measuring crossing time at 5 mg/kg, iv QD for 4 weeks by balance beam test. It is filed as functional, organism-based.
In data set [9] the target is G-protein coupled receptor 52 (Mus musculus) (UniProt P0C5J4). Nature of the data set: Antagonist activity at GPR52 in mouse STHdhQ7/111 cells assessed as decrease in mHTT levels incubated for 48 hrs in presence of 2B7-terbium and 2166-D2 antibodies by TR-FRET. It is filed as cell-based. The note with it: filed as antagonist, dose 0.3-10 µM.
The test system of data set [10] is Mus musculus. Nature of the data set: Neuroprotective activity in HdhQ140 knock-in mouse model assessed as decrease in staining intensity of microglia in striatum at 5 mg/kg, iv QD for 4 weeks by Iba1 staining based immunostaining analysis. It is filed as functional, organism-based.
The target of data set [11] is Glucagon-like peptide 1 receptor (Homo sapiens) (UniProt P43220). Nature of the data set: Antagonist activity at GLP-1R (unknown origin) expressed in HEK293 cells assessed as inhibition of GLP1-induced cAMP accumulation. It is filed as functional, cell-based.
Chain of Glucagon-like peptide 1 receptor (Homo sapiens) (P43220 whole entry): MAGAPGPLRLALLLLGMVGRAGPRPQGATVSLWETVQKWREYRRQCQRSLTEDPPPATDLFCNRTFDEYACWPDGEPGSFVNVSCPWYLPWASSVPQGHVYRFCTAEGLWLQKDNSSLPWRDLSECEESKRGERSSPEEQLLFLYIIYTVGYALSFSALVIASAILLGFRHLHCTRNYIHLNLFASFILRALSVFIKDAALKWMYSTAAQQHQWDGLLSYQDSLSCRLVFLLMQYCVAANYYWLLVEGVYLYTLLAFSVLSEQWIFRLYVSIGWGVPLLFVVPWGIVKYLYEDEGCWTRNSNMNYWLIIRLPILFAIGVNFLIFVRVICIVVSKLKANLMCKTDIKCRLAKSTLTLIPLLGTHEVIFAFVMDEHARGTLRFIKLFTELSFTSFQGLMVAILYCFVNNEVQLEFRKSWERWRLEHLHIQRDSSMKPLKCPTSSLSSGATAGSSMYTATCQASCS
For data set [12], the target named is G-protein coupled receptor 52 (Mus musculus) (UniProt P0C5J4). Briefly: In vivo antagonist activity at GPR52 in wild type mouse model assessed as reduction in mHTT aggregate levels in striatum in presence of 4C9 antibody labelled with terbium at 5 mg/kg, iv QD for 4 weeks by TR-FRET analysis. It is filed as functional, organism-based.
The target is the same in data set [13]. Briefly: In vivo antagonist activity at GPR52 in HdhQ140 knock-in mouse model assessed as reduction in soluble mHTT levels in striatum at 5 mg/kg, iv QD for 4 weeks by TR-FRET analysis. It is filed as functional, organism-based.
The target is the same in data set [14]. Nature of the data set: Antagonist activity at GPR52 in neurons from HdhQ7/Q140 mouse assessed as decrease in mHTT levels at 0.1 to 3 uM incubated for 48 hrs in presence of 2B7-terbium and 2166-D2 antibodies by TR-FRET analysis. It is filed as tissue-based. To be noted: Neuron, filed as antagonist, dose 0.1-3 µM.
Data set [15] deals with Beta-2 adrenergic receptor (Homo sapiens) (UniProt P07550). Nature of the data set: Antagonist activity at beta2 adrenergic receptor (unknown origin) expressed in HEK293 cells assessed as inhibition of isoproterenol-induced cAMP accumulation. It is filed as functional, cell-based.
Chain of Beta-2 adrenergic receptor (Homo sapiens) (P07550 whole entry, looked up): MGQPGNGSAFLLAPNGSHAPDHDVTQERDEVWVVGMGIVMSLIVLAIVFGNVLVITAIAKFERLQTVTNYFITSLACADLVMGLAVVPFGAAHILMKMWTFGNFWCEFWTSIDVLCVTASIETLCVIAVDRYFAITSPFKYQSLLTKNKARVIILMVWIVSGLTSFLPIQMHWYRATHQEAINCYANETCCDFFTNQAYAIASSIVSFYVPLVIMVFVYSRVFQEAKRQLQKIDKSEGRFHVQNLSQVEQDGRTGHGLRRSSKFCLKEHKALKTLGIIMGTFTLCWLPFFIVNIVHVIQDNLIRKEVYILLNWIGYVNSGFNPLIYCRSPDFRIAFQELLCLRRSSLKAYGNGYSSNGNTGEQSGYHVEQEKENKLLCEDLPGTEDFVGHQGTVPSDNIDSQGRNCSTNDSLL
For data set [16], the target named is G-protein coupled receptor 52 (Mus musculus) (UniProt P0C5J4). Nature of the data set: In vivo antagonist activity at GPR52 in HdhQ140 knock-in mouse model assessed as reduction in mHTT aggregate levels in striatum at 0.5 mM, icv QD for 3 weeks by S380 antibody based immunostaining based analysis. It is filed as functional.
Data set [17] can be described thus: Drug uptake in wild type mouse brain at 5 mg/kg, iv measured 0.5 to 6 hrs. It is filed as ADME, organism-based. To be noted: in vivo, time 0.5-6 hrs, read-out: Drug uptake.
The subject of data set [18] is Mus musculus. Briefly: Neuroprotective activity in HdhQ140 knock-in mouse model assessed as rescue of mHTT-induced neuronal survival loss at 5 mg/kg, iv QD for 4 weeks by […] based immunostaining based analysis. It is filed as functional, organism-based.
For data set [19], the target named is T1, Alpha-1D adrenergic receptor (Homo sapiens) (UniProt P25100).
T1 sequence (whole entry): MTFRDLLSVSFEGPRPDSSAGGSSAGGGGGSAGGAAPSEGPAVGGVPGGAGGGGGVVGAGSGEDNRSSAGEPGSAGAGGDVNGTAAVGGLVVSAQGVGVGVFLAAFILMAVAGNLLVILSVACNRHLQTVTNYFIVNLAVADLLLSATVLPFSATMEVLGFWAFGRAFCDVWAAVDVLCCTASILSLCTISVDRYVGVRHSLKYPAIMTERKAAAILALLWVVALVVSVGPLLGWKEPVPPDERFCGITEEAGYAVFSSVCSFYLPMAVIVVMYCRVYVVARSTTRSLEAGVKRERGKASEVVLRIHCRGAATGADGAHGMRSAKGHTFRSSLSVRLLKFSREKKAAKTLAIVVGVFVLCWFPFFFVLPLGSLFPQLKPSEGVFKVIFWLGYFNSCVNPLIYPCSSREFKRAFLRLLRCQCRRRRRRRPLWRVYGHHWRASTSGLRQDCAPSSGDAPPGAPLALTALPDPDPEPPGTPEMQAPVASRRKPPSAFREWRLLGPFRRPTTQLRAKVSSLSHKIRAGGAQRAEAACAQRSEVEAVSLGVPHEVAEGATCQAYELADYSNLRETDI
Briefly: Antagonist activity at alpha1D adrenergic receptor (unknown origin) expressed in HEK293 cells assessed as inhibition of phenylephrine-induced cAMP accumulation. It is filed as functional, cell-based.

Activity calls are given as the source filed them. The rule behind the calls is not given here.

Turning to `O=C(/C=C/CCc1ccccc1)c1ccco1`, the values for the Activity result in data set [1], in data set [2] and in data set [9] were “Non-Toxic”, “Non-Toxic” and “Dose-dependent effect”, respectively. For the same compound, the outcome (in data set [3]; with Neuron; in data set [7]; with Mus musculus [8]; in the data set on Mus musculus [10]; in data set [13]) was Active. For the same compound, the outcome (in data set [14]; in [16]; in the data set with Mus musculus [18]) was Active. Also, the result in data set [4], in data set [5], in data set [6], in data set [11], in data set [12] and in [15] was inactive. Further, the result in data set [19] was inactive. Further, the concentration in [17] is 20 nM.
